Measurements as given in PubChem BioAssay (NCI).
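Interpolation was linear, between the two tested concentrations surrounding the appropriate level; five concentrations were tested over 48 hours in 96-well plates. TGI is the concentration that stops growth completely.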 *1 amine or outer side, *2 acyl side, *3 side chain or, on linkers, in order; H or OH if unused. Where a SMILES comes first, the peptide text is derived from it. Bridges are numbered along the chain shown (N, C = ends). Roman numbers before positions name the chains, in order. [ ]: non-standard residue; d: D form. Actinocin(9to1) = Cc1c2oc3c(C)ccc(C(=O)[*:1])c3nc-2c(C(=O)[*:2])c(N)c1=O; NMeH = CN[CH](Cc1c[nH]cn1)C(=O)O; Sar = CNCC(=O)O

Key:
Experiment in all cases: NCI-60 cell line screen, 48 h
SR leukemia = system: SR leukemia
K-562 leukemia = system: K-562 leukemia
SK-MEL-5 melanoma = system: SK-MEL-5 melanoma
COLO 205 colon = system: COLO 205 colon
SK-MEL-2 melanoma = system: SK-MEL-2 melanoma
NCI-H460 lung = system: NCI-H460 lung
MDA-N = system: MDA-N
HT29 colon = system: HT29 colon
SF-539 CNS = system: SF-539 CNS
U251 CNS = system: U251 CNS
RXF 393 renal = system: RXF 393 renal
HOP-62 NSCLC = system: HOP-62 NSCLC
CCRF-CEM leukemia = system: CCRF-CEM leukemia
UACC-257 melanoma = system: UACC-257 melanoma
UO-31 renal = system: UO-31 renal
MOLT-4 leukemia = system: MOLT-4 leukemia
KM12 colon = system: KM12 colon
NCI-H522 lung = system: NCI-H522 lung
MDA-MB-231 breast = system: MDA-MB-231 breast
TK-10 renal = system: TK-10 renal
SF-295 CNS = system: SF-295 CNS
IGROV1 ovarian = system: IGROV1 ovarian
OVCAR-5 ovarian = system: OVCAR-5 ovarian
M14 melanoma = system: M14 melanoma
HOP-92 NSCLC = system: HOP-92 NSCLC
786-0 renal = system: 786-0 renal
SF-268 CNS = system: SF-268 CNS
HL-60(TB) leukemia = system: HL-60(TB) leukemia
DU-145 prostate = system: DU-145 prostate
SK-MEL-28 melanoma = system: SK-MEL-28 melanoma
RPMI-8226 leukemia = system: RPMI-8226 leukemia
HS 578T breast = system: HS 578T breast
HCT-116 colon = system: HCT-116 colon
SNB-19 CNS = system: SNB-19 CNS
OVCAR-4 ovarian = system: OVCAR-4 ovarian
NCI-H23 lung = system: NCI-H23 lung
LOX IMVI melanoma = system: LOX IMVI melanoma
PC-3 prostate = system: PC-3 prostate
NCI/ADR-RES ovarian = system: NCI/ADR-RES ovarian
SK-OV-3 ovarian = system: SK-OV-3 ovarian
SN12C renal = system: SN12C renal
SW-620 colon = system: SW-620 colon
SNB-75 CNS = system: SNB-75 CNS
A549 NSCLC = system: A549 NSCLC
OVCAR-8 ovarian = system: OVCAR-8 ovarian
MALME-3M melanoma = system: MALME-3M melanoma
BT-549 breast = system: BT-549 breast
HCT-15 colon = system: HCT-15 colon
T-47D breast = system: T-47D breast
CAKI-1 renal = system: CAKI-1 renal
EKVX NSCLC = system: EKVX NSCLC
ACHN renal = system: ACHN renal
HCC-2998 colon = system: HCC-2998 colon
MDA-MB-435 = system: MDA-MB-435
MCF7 breast = system: MCF7 breast
NCI-H226 lung = system: NCI-H226 lung
OVCAR-3 ovarian = system: OVCAR-3 ovarian
UACC-62 melanoma = system: UACC-62 melanoma

Cc1ccc(S(=O)(=O)NC(=O)NC(Cc2ccc(O)cc2)C(=O)O)cc1 (stereo not given)
TGI (SR leukemia): > 100 µM
TGI (K-562 leukemia): > 100 µM
TGI (SK-MEL-5 melanoma): > 100 µM
TGI (COLO 205 colon): > 100 µM
TGI (SK-MEL-2 melanoma): > 100 µM
TGI (NCI-H460 lung): > 100 µM
TGI (MDA-N): > 100 µM
TGI (HT29 colon): > 100 µM
TGI (SF-539 CNS): > 100 µM
TGI (U251 CNS): > 100 µM
TGI (RXF 393 renal): > 100 µM
TGI (HOP-62 NSCLC): > 100 µM
TGI (CCRF-CEM leukemia): > 100 µM
TGI (UACC-257 melanoma): > 100 µM
TGI (UO-31 renal): > 100 µM
TGI (MOLT-4 leukemia): > 100 µM
TGI (KM12 colon): > 100 µM
TGI (NCI-H522 lung): > 100 µM
TGI (MDA-MB-231 breast): > 100 µM
TGI (TK-10 renal): > 100 µM
TGI (SF-295 CNS): > 100 µM
TGI (IGROV1 ovarian): > 100 µM
TGI (OVCAR-5 ovarian): > 100 µM
TGI (M14 melanoma): > 100 µM
TGI (HOP-92 NSCLC): > 100 µM
TGI (786-0 renal): > 100 µM
TGI (SF-268 CNS): > 100 µM
TGI (HL-60(TB) leukemia): > 100 µM
TGI (DU-145 prostate): > 100 µM
TGI (SK-MEL-28 melanoma): > 100 µM
TGI (RPMI-8226 leukemia): > 100 µM
TGI (HS 578T breast): > 100 µM
TGI (HCT-116 colon): > 100 µM
TGI (SNB-19 CNS): > 100 µM
TGI (OVCAR-4 ovarian): > 100 µM
TGI (NCI-H23 lung): > 100 µM
TGI (LOX IMVI melanoma): > 100 µM
TGI (PC-3 prostate): > 100 µM
TGI (NCI/ADR-RES ovarian): > 100 µM
TGI (SK-OV-3 ovarian): > 100 µM
TGI (SN12C renal): > 100 µM
TGI (SW-620 colon): > 100 µM
TGI (SNB-75 CNS): > 100 µM
TGI (A549 NSCLC): > 100 µM
TGI (OVCAR-8 ovarian): > 100 µM
TGI (MALME-3M melanoma): > 100 µM
TGI (BT-549 breast): > 100 µM
TGI (HCT-15 colon): > 100 µM
TGI (T-47D breast): > 100 µM

Cc1c2oc3c(C)ccc(C(=O)NC4C(=O)NC(C(C)C)C(=O)N5CCCC5C(=O)N(C)CC(=O)N(C)C(Cc5cnc[nH]5)C(=O)OC4C)c3nc-2c(C(=O)NC2C(=O)NC(C(C)C)C(=O)N3CCCC3C(=O)N(C)CC(=O)N(C)C(Cc3cnc[nH]3)C(=O)OC2C)c(N)c1=O (stereo not given) (I: TVP[Sar][NMeH] / II: TVP[Sar][NMeH]; ester I:1-I:C, II:1-II:C; linker I:N-II:N via Actinocin(9to1); configuration not given here)
TGI (SR leukemia): > 100 µM
TGI (K-562 leukemia): > 100 µM
TGI (SK-MEL-5 melanoma): 55.9 µM
TGI (COLO 205 colon): > 100 µM
TGI (SK-MEL-2 melanoma): > 100 µM
TGI (CAKI-1 renal): > 100 µM
TGI (NCI-H460 lung): > 100 µM
TGI (MDA-N): 81.4 µM
TGI (HT29 colon): > 100 µM
TGI (SF-539 CNS): > 100 µM
TGI (EKVX NSCLC): > 100 µM
TGI (ACHN renal): > 100 µM
TGI (U251 CNS): > 100 µM
TGI (RXF 393 renal): 51.9 µM
TGI (HOP-62 NSCLC): > 100 µM
TGI (CCRF-CEM leukemia): > 100 µM
TGI (HCC-2998 colon): > 100 µM
TGI (MDA-MB-435): > 100 µM
TGI (UACC-257 melanoma): > 100 µM
TGI (UO-31 renal): > 100 µM
TGI (MOLT-4 leukemia): > 100 µM
TGI (KM12 colon): > 100 µM
TGI (NCI-H522 lung): > 100 µM
TGI (MDA-MB-231 breast): > 100 µM
TGI (TK-10 renal): > 100 µM
TGI (SF-295 CNS): > 100 µM
TGI (IGROV1 ovarian): > 100 µM
TGI (OVCAR-5 ovarian): > 100 µM
TGI (M14 melanoma): > 100 µM
TGI (HOP-92 NSCLC): > 100 µM
TGI (786-0 renal): > 100 µM
TGI (SF-268 CNS): > 100 µM
TGI (HL-60(TB) leukemia): > 100 µM
TGI (SK-MEL-28 melanoma): > 100 µM
TGI (RPMI-8226 leukemia): > 100 µM
TGI (HS 578T breast): > 100 µM
TGI (MCF7 breast): > 100 µM
TGI (SNB-19 CNS): > 100 µM
TGI (NCI-H226 lung): > 100 µM
TGI (OVCAR-4 ovarian): > 100 µM
TGI (NCI-H23 lung): > 100 µM
TGI (LOX IMVI melanoma): > 100 µM
TGI (PC-3 prostate): > 100 µM
TGI (NCI/ADR-RES ovarian): > 100 µM
TGI (OVCAR-3 ovarian): > 100 µM
TGI (SK-OV-3 ovarian): > 100 µM
TGI (UACC-62 melanoma): > 100 µM
TGI (SN12C renal): > 100 µM
TGI (SW-620 colon): > 100 µM
TGI (SNB-75 CNS): > 100 µM
TGI (A549 NSCLC): > 100 µM
TGI (OVCAR-8 ovarian): > 100 µM
TGI (MALME-3M melanoma): > 100 µM
TGI (BT-549 breast): > 100 µM
TGI (HCT-15 colon): > 100 µM
TGI (T-47D breast): > 100 µM
